Where two headings read alike, the source gives them in different places.
What was measured:
[1] = molecular target: GST-tagged KRAS-G12D (2-169) (Homo sapiens, UniProt P01116, G12D); test: Nucleotide exchange assay (NEA), SOS-mediated, HTRF, KRAS G12D; format: biochemical; settings: IC50 extracted at 30 min, 20 nM SOScat
How it was run: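 Compound preincubated 1 h at RT with 0.25 nM GST-KRAS-G12D (2-169) and anti-GST Tb donor, then 20 nM SOS1cat (564-1049) and 150 nM GTP-DY-647P1 added; pH 7.3 HEPES buffer with MgCl2 and DTT. HTRF monitored at RT; % inhibition versus DMSO and no-SOS blank, 4-parameter IC50 taken at 30 min.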

KRAS G12V/RAF1 = molecular target: T1, KRAS G12V/RAF1 (Homo sapiens, UniProt P01116, G12V); test: Protein-protein interaction (PPI) HTRF assay KRAS G12V/RAF1; format: binding; settings: Table 3
T1 construct: KRAS (1-169) proteins were expressed in BL21 (DE3)-CodonPlus E. coli; His6-MBP (N, cleaved yes)
T1 sequence (P01116 with tags, fused parts or gaps isoform P01116-2 G12V): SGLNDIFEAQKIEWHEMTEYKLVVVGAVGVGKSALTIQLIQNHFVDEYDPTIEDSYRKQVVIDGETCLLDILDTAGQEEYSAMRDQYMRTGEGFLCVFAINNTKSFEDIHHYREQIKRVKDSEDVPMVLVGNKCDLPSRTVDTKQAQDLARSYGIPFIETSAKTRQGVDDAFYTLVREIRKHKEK
Procedure: (§1) When RAS proteins are in the active GTP-bound conformation, they bind the effector protein RAF1 at the N-terminus Ras-binding domain (RBD, residues 52-131) (Tran, et al., 2021). Homogenous time resolved fluorescence (HTRF) was used to monitor the interaction between wt or mutant KRAS and RAF1 or wt NRAS and RAF1. Compounds were assayed in the presence of KRAS G12D/V and RAF1 versus wt KRAS to assess activity against mutant and w.t. KRAS. Similarly, compounds were then assayed in the presence of w.t. NRAS and RAF1 to assess RAS isoform selectivity. In all assay formats, His-tagged RAF1 protein was incubated with the HTRF donor, anti-6His Tb Cryptate gold (Cisbio 61DB10RDF), and biotinylated RAS proteins were incubated with the HTRF acceptor, streptavidin-d2 (CisBio 610SADLA). The intensity of the fluorescence signal emitted is proportional to binding between the two proteins. The donor solution was prepared by mixing 16 nM His-tagged RAF1 in protein dilution buffer with 1:100 anti-6His Tb cryptate in PPI-Terbium detection buffer. 16 nM biotinylated RAS protein was diluted into protein dilution buffer (50 mM Tris-HCl pH 7.5, 150 mM NaCl, 0.1 mM MgCl2, 1 mM TCEP, 0.005% Tween20) and mixed with 1:2000 Streptavidin-d2 diluted in PPI-Terbium detection buffer (CisBio 61DB10RDF). 50× compound in DMSO was mixed with 16 nM KRAS-acceptor solution and incubated for 30 minutes at room temperature. After compound pre-incubation with KRAS, the RAF1 donor solution was added to the KRAS-acceptor solution and incubated for 1 hour at room temperature. The fluorescence signal emitted was monitored at 665 nm and 615 nm using an Envision multimode plate reader. The HTRF ratio (665/615) was calculated and normalized to 0% inhibition in the absence of compound and 100% inhibition in the presence of untagged RAF1 protein. PPI KRAS G12D/RAF1, KRAS G12V/RAF1, w.t. KRAS/RAF1 and NRAS/RAF1 IC50 (uM) values of selected compounds are depicted in Table 3 and Table 4 with compounds having a value <0.1 uM as ++++; ≥0.1 uM to 1 uM as +++; ≥1 uM to 10 uM as ++; ≥10 uM to 100 uM as +; and ≥100 uM as NA.

KRAS G12D/RAF1 = molecular target: T2, KRAS G12D/RAF1 (Homo sapiens, UniProt P01116, G12D); test: Protein-protein interaction (PPI) HTRF assay KRAS G12D/RAF1; format: binding; settings: Table 2
T2 construct: KRAS (1-169) proteins were expressed in BL21 (DE3)-CodonPlus E. coli; His6-MBP (N, cleaved yes)
T2 sequence (P01116 with tags, fused parts or gaps isoform P01116-2 G12D): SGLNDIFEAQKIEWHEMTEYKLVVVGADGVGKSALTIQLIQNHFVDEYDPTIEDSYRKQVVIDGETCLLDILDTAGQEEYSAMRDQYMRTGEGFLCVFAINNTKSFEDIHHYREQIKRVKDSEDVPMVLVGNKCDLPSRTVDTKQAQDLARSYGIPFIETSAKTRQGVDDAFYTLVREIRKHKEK
Procedure: as §1

[2] = molecular target: GST-tagged KRAS-G12V (2-169) (Homo sapiens, UniProt P01116, G12V); test: Nucleotide exchange assay (NEA), SOS-mediated, HTRF, KRAS G12V; format: biochemical; settings: Table 4; IC50 extracted at 90 min; 80 nM SOS
Sequence of GST-tagged KRAS-G12V (2-169) (P01116 2-169 isoform P01116-2 G12V): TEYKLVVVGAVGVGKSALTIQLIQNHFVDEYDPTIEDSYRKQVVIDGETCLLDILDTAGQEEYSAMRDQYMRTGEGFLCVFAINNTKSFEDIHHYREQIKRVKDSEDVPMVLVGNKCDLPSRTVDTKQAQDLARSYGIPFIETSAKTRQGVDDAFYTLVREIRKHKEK
How it was run: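 GST-KRAS-G12V (2-169), 0.25 nM, pre-incubated 1 h at RT with compound, then SOS1cat (564-1049) 80 nM and GTP-DY-647P1 150 nM added in HEPES pH 7.3 buffer with MgCl2 and DTT. HTRF via anti-GST Tb cryptate read over 90 min; IC50 from 4-parameter fit at 90 min, blanked to no-SOS reactions.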

phospho-ERK in AGS cells = test: pERK In Cell Western (ICW) assay (Method B), AGS; format: cell-based; settings: Homo sapiens, Table 2, 3 hours
Procedure: pERK ICW is a high throughput screening assay to evaluate the cellular potency of mutant KRAS small molecule inhibitors. KRAS mutant cell lines AGS, GP2D (KRAS-G12D) as well as SW620 (KRAS-G12V) were purchased from ATCC and maintained respectively in RPMI/DMEM/RPMI medium supplemented with 10% fetal bovine serum.
Cells grown in exponential phase were trypsinized, resuspended in fresh media, and viable cells were counted using a cell counter with Trypan Blue (BioRad TC20). Cells were seeded into 384-well plate (Greiner 781091) at density of 5,000 cells/well for AGS and 10,000 cells/well for GP2D/SW620 and allowed to grow overnight in a 37° C. CO2 incubator. The next day, compounds were dispensed into wells with a ½ log, 9-point serial dilution using a Tecan D300e dispenser and incubated for 3 hours in a 37° C. CO2 incubator. Cells were then fixed with paraformaldehyde (Electron Microscopy Sciences, 15710, 4% final concentration) for 30 min, permeabilized with wash buffer (1×PBS+0.1% Triton X-100) for 30 min and blocked with Odyssey blocking buffer (Li—COR 927-70001) for 1 hour, all at room temperature (RT). Phospho-ERK antibody (CST 4370L) was diluted 1:500 in Odyssey T20 (PBS) antibody diluent (Li—COR 927-75001) and incubated with cells overnight at 4° C. The next day, plates were washed 5× with wash buffer, incubated with IRDye 800 CW, Goat anti-Rabbit secondary antibody (Li—COR 926-32211, 1:800) and DRAQ5 (CST 4084L, 1:5,000) diluted in Odyssey T20 (PBS) antibody diluent for 1 hour, washed 5×, and imaged on an Odyssey CLx imaging system.
For data analysis, signal intensities from 800 (phosphor-ERK) and 700 (DRAQ5) channels were extracted, and phospho-ERK signals were normalized to DRAQ5 signals for each well and percent of blank control values were computed. Data were then imported into Graphpad Prism to compute half-maximal inhibitory concentrations (IC50) using a 4-parameter variable slope model. Z-factor for each plate was computed from signals derived from wells treated with either DMSO or 5 μM of control compound. AGS pERK ICW (Method B) IC50 (uM) values of selected compounds are depicted in Table 2 with compounds having a value ≥0.001 uM to 0.01 uM as ++++; ≥0.01 uM to 0.1 uM as +++; ≥0.1 uM to 1 uM as ++; ≥1 uM to 10 uM as + and ≥10 uM as NA.

[3] = system: phospho-ERK in GP2D (KRAS-G12D) cells; test: pERK In Cell Western (ICW) assay (Method B), GP2D; format: cell-based; settings: GP2d, 3 h, Table 4
How it was run: (§2)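 Here IC50 reflects phospho-ERK suppression after 3 h compound exposure at 37 °C in cells grown in 10% FBS medium. Signal is normalized to DRAQ5 DNA stain and to blank control wells.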

[4] = system: phospho-ERK in SW620 (KRAS-G12V) cells; test: pERK In Cell Western (ICW) assay (Method B), SW620; format: cell-based; settings: Homo sapiens, SW-620, 3 h, Table 4
How it was run: as §2

[5] = Table 2, read-out: NEA-G12D (uM) IC50
[6] = Table 4, read-out: NEA G12D IC50

Sequence of GST-tagged KRAS-G12D (2-169) (P01116 2-169 isoform P01116-2 G12D): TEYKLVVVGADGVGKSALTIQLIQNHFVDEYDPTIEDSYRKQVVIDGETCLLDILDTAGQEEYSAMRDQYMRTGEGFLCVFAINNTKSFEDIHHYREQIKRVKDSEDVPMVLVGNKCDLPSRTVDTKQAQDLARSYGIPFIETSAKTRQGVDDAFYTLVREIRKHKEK

SMILES | IC50 [1, 5] [µM] | IC50 [1, 6] [µM] | IC50 (KRAS G12V/RAF1) [µM] | IC50 (KRAS G12D/RAF1) [µM] | IC50 [2] [µM] | IC50 (phospho-ERK in AGS cells) [µM] | IC50 [3] [µM] | IC50 [4] [µM]
N#Cc1c(N)sc2c1C1(CC2)CCN(c2nc(OC[C@@]34CCCN3C[C@H](F)C4)nc(N3CCCC(C#N)CC3)n2)C1 (stereo partly drawn) [Compound 12, 2-amino-1′-[4-(4-cyanoazepan-1-yl)-6-[[(2R,8S)-2-fluoro-1,2,3,5,6,7-hexahydropyrrolizin-8-yl]methoxy]-1,3,5-triazin-2-yl]spiro[5,6-dihydrocyclopenta[b]thiophene-4,3′-pyrrolidine]-3-carbonitrile] | 0.1 to 1 | 0.1 to 1 | 10 to 100 | 10 to 100 | 0.1 to 1 | – | – | –
N#Cc1c(N)sc2c1C1(CC2)CCN(c2nc(OCC3(CN4CCOCC4)CC3)nc(N3C[C@H]4CC[C@@H](C3)N4)n2)C1 (stereo partly drawn) [Compound 9, 2-amino-1′-[4-[(1R,5S)-3,8-diazabicyclo[3.2.1]octan-3-yl]-6-[[1-(morpholinomethyl)cyclopropyl]methoxy]-1,3,5-triazin-2-yl]spiro[5,6-dihydrocyclopenta[b]thiophene-4,3′-pyrrolidine]-3-carbonitrile] | < 0.01 | < 0.01 | 10 to 100 | 1 to 10 | 1 to 20 | 0.1 to 1 | 0.01 to 0.1 | –
CC(C#N)COc1nc(OC[C@@]23CCCN2C[C@H](F)C3)nc(N2CC3(CCc4sc(N)c(C#N)c43)C2)n1 (stereo partly drawn) [Compound 17, 2-amino-1′-[4-(2-cyanopropoxy)-6-[[(2R,8S)-2-fluoro-1,2,3,5,6,7-hexahydropyrrolizin-8-yl]methoxy]-1,3,5-triazin-2-yl]spiro[5,6-dihydrocyclopenta[b]thiophene-4,3′-azetidine]-3-carbonitrile] | 0.1 to 1 | 0.1 to 1 | 10 to 100 | 10 to 100 | 0.01 to 0.1 | – | – | –
C[C@@]1(O)CCCN(c2nc(OC[C@@]34CCCN3C[C@H](F)C4)nc(N3CC4(C3)SCc3sc(N)c(C#N)c34)n2)C1 [Compound 49, 2-amino-1′-[4-[[(2R,8S)-2-fluoro-1,2,3,5,6,7-hexahydropyrrolizin-8-yl]methoxy]-6-[(3R)-3-hydroxy-3-methyl-1-piperidyl]-1,3,5-triazin-2-yl]spiro[6H-thieno[2,3-c]thiophene-4,3′-azetidine]-3-carbonitrile] | – | < 0.01 | – | – | < 0.01 | – | < 0.01 | 0.1 to 1
N#Cc1c(N)sc2c1C1(CN(c3nc(OC[C@@]45CCCN4C[C@H](F)C5)nc(Oc4ccnnc4)n3)C1)SC2 [Compound 169, 2-amino-1′-[4-[[(2R,8S)-2-fluoro-1,2,3,5,6,7-hexahydropyrrolizin-8-yl]methoxy]-6-pyridazin-4-yloxy-1,3,5-triazin-2-yl]spiro[6H-thieno[2,3-c]thiophene-4,3′-azetidine]-3-carbonitrile] | – | 1 to 20 | – | – | 0.1 to 1 | – | 1 to 20 | 1 to 20
CN(Cc1nsnc1N)c1nc(OC[C@@]23CCCN2C[C@H](F)C3)nc(N2CC3(CCc4sc(N)c(C#N)c43)C2)n1 [Compound 166, 2-amino-1′-[4-[(4-amino-1,2,5-thiadiazol-3-yl)methyl-methyl-amino]-6-[[(2R,8S)-2-fluoro-1,2,3,5,6,7-hexahydropyrrolizin-8-yl]methoxy]-1,3,5-triazin-2-yl]spiro[5,6-dihydrocyclopenta[b]thiophene-4,3′-azetidine]-3-carbonitrile] | – | 0.01 to 0.1 | – | – | < 0.01 | – | 0.1 to 1 | 0.01 to 0.1
N#Cc1c(N)sc2c1C1(CC2)CN(c2nc(OC[C@@]34CCCN3C[C@H](F)C4)nc(N3CCCC4(C3)NC(=O)NC4=O)n2)C1 (stereo partly drawn) [Compound 45, 2-amino-1′-[4-(2,4-dioxo-1,3,9-triazaspiro[4.5]decan-9-yl)-6-[[(2R,8S)-2-fluoro-1,2,3,5,6,7-hexahydropyrrolizin-8-yl]methoxy]-1,3,5-triazin-2-yl]spiro[5,6-dihydrocyclopenta[b]thiophene-4,3′-azetidine]-3-carbonitrile] | – | < 0.01 | – | – | < 0.01 | – | 0.1 to 1 | 1 to 20
CC(c1cccnc1N)N(C)c1nc(OCC2(CN3CCOCC3)CC2)nc(N2CC3(CCc4sc(N)c(C#N)c43)C2)n1 (centres unmarked) [Compound 97, 2-amino-1′-[4-[1-(2-amino-3-pyridyl)ethyl-methyl-amino]-6-[[1-(morpholinomethyl)cyclopropyl]methoxy]-1,3,5-triazin-2-yl]spiro[5,6-dihydrocyclopenta[b]thiophene-4,3′-azetidine]-3-carbonitrile] | – | 0.01 to 0.1 | – | – | < 0.01 | – | 1 to 20 | 0.1 to 1
CC(c1nonc1N)N(C)c1nc(OC[C@@]23CCCN2C[C@H](F)C3)nc(N2CC3(CCc4sc(N)c(C#N)c43)C2)n1 (stereo partly drawn) [Compound 156, 2′-amino-1-(4-((1-(4-amino-1,2,5-oxadiazol-3-yl)ethyl)(methyl)amino)-6-(((2R,7aS)-2-fluorotetrahydro-1H-pyrrolizin-7a(5H)-yl)methoxy)-1,3,5-triazin-2-yl)-5′,6′-dihydrospiro[azetidine-3,4′-cyclopenta[b]thiophene]-3′-carbonitrile] | – | 0.1 to 1 | – | – | < 0.01 | – | 1 to 20 | 0.01 to 0.1

From US12421254B2, “KRAS modulators and uses thereof” (Quanta Therapeutics, Inc., priority 2023, dated 2025)
